Measured values as given in patent US5750754A, “Heterocyclic compounds” (Zeneca Limited, priority 1993, dated 1998).
Where a name gives a salt, the structure may show the parent alone. Read-outs that look alike come from different tables or passages of the source.

What was measured:
[1] = molecular target: T1, human, citrated, platelet-rich plasma (Homo sapiens, UniProt P05106+P08514); experiment: Test (a): inhibition of ADP stimulated platelet aggregation (Born); format: cell-based; conditions: ADP induced aggregation of human platelet-rich plasma
T1 construct: aggregating human, citrated, platelet-rich plasma; endogenous in cells; host or cells: human platelets in citrated platelet-rich plasma
Method in brief: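 ADP added to human citrated platelet-rich plasma to build aggregation dose-response curves, repeated with increasing test compound (generally 10-^5 M to 10-^10 M). pA2 derived from the 50% response value for ADP with vs. without compound, averaged over several concentrations.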

[2] = molecular target: T2, purified human platelet fibrinogen receptor (GPIIb/IIIa) (Homo sapiens, UniProt P05106+P08514); experiment: Test (b): GPIIb/IIIa ELISA, inhibition of biotinylated fibrinogen binding; conditions: purified human platelet GPIIb/IIIa, ELISA
T2 construct: is isolated from human platelet lysates; from tissue
Method in brief: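 GPIIb/IIIa affinity-purified from human platelet lysates was coated on plates, blocked, then incubated 2 h at 30 °C with biotinylated fibrinogen ([…]) plus compound. Bound fibrinogen detected via streptavidin/biotinylated HRP and TMB, OD at 650 nm; pIC50 for 50% binding inhibition.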

[3] = read-out: Test (a): pA2 value indicating potency of platelet aggregation inhibition (converted)
[4] = read-out: Test (b): pIC50 (-log(IC50)), 50% inhibition of biotinylated fibrinogen binding to GPIIb/IIIa (converted)

T2 sequence (P08514 32-887 limits assumed): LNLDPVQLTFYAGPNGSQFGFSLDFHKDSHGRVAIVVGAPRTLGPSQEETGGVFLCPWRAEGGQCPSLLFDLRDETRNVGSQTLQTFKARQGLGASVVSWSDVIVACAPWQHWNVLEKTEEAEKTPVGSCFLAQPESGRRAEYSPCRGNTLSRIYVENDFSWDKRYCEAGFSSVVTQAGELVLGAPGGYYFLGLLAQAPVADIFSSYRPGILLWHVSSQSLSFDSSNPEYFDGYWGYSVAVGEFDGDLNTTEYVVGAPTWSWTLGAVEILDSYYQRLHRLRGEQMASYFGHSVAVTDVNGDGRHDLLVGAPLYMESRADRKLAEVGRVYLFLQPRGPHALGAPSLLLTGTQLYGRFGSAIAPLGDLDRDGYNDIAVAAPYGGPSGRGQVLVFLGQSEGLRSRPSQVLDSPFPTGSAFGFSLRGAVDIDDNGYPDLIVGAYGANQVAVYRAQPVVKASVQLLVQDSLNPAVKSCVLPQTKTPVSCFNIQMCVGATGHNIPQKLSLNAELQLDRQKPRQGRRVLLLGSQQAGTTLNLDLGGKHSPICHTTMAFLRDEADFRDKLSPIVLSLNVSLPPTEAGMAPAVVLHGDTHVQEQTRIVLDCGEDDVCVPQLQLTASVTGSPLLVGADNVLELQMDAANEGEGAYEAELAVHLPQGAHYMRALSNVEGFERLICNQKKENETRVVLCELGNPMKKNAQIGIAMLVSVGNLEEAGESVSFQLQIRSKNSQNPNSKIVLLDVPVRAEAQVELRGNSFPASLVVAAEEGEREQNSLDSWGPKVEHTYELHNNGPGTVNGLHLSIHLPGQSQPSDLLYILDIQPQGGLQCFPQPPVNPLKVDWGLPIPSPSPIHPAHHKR
T2 sequence (P08514 891-1039 limits assumed): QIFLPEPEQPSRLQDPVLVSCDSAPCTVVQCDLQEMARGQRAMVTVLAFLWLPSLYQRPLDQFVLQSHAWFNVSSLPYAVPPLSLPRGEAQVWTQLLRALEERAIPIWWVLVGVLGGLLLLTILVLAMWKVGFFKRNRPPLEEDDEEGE
T2 sequence (P05106 27-788): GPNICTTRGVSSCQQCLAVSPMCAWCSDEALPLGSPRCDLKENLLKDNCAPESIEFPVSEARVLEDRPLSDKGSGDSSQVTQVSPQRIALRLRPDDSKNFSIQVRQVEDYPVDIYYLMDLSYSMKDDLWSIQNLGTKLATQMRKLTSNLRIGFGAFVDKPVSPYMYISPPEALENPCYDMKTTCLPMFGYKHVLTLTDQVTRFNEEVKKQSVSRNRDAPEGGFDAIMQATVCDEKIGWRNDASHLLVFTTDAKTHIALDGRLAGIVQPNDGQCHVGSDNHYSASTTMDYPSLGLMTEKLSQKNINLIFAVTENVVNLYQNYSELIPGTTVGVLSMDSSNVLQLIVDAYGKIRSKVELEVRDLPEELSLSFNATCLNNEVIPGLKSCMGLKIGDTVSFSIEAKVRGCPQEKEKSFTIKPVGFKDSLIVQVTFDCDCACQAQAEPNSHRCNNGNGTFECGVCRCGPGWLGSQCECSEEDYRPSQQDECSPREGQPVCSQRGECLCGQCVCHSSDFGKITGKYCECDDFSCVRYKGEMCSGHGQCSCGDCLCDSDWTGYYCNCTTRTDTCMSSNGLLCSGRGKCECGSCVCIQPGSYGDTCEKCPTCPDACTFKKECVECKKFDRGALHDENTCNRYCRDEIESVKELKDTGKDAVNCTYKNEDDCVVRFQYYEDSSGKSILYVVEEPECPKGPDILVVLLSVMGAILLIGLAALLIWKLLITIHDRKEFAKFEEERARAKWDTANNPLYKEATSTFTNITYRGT
T1 sequence (P08514 32-887 limits assumed): as the sequence (P08514 32-887 limits assumed) above
T1 sequence (P08514 891-1039 limits assumed): as the sequence (P08514 891-1039 limits assumed) above
T1 sequence (P05106 27-788): as the sequence (P05106 27-788) above

Kb [1, 3] [µM] | IC50 [2, 4] [µM] | Structure (SMILES) | Kb ([1]; Test (a): pA2 value indicating potency of platelet aggregation inhibition) [µM] | IC50 ([2]; Test (b): pIC50 (-log(IC50)), 50% inhibition of biotinylated fibrinogen binding to GPIIb/IIIa) [µM]
12.6 | 50.1 | COC(=O)CCc1ccc(OCC2CCN(c3ccncc3)CC2)cc1 [Example 161, Methyl 3-[4-[1-(4-pyridyl)piperidin-4-yl]methoxyphenyl]propionate] |  | 
20 | 0.631 | O=C(O)CCc1ccc(OCC2CCN(c3ccncc3)CC2)cc1 [Example 162, 3-[4-[1-(4-Pyridyl)piperidin-4-yl]methoxyphenyl]propionic acid] |  | 
0.398 | 0.251 | COC(=O)COc1ccc(NC(=O)C2CCN(c3ccncc3)CC2)cc1 [Example 163, Methyl 4-[[1-(4-pyridyl)piperidin-4-yl]carboxamido]phenoxyacetate, hydrochloride] |  | 
0.00794 | 0.0398 to 0.0631 | O=C(O)COc1ccc(NC(=O)C2CCN(c3ccncc3)CC2)cc1 [Example 164] |  | 
1.26 | 20 | COC(=O)COc1ccc(NC(=O)CC2CCN(c3ccncc3)CC2)cc1 [Example 165] |  | 
1.58 | 0.316 | O=C(O)COc1ccc(NC(=O)CC2CCN(c3ccncc3)CC2)cc1 [Example 166, 4-[2-[1-(4-Pyridyl)piperidin-4-yl]acetamido]phenoxyacetic acid dihydrochloride] |  | 
0.251 | 0.2 | O=C(O)COc1ccc(C(=O)NC2CCN(c3ccncc3)CC2)cc1 [Example 167, 4-[[1-(4-Pyridyl)piperidin-4-yl]aminocarbonyl]phenoxyacetic acid dihydrochloride] |  | 
0.794 | 0.398 | O=C(O)COc1ccc(C(=O)NCC2CCN(c3ccncc3)CC2)cc1 [Example 168] |  | 
39.8 | 10 | O=C(O)Cc1ccc(NC(=O)C2CCN(c3ccncc3)CC2)cc1 [Example 169] |  | 
15.8 | > 100 | CCCCS(=O)(=O)NCc1ccc(NC(=O)C2CCN(c3ccncc3)CC2)cc1 [Example 170, N-[4-[4-[1-(4-Pyridyl)piperidin-4-yl]carboxamidophenyl]-methyl]-1-butanesulphonamide] |  | 
6.31 | > 100 | Cc1ccc(S(=O)(=O)NCc2ccc(NC(=O)C3CCN(c4ccncc4)CC3)cc2)cc1 [Example 171, N-[4[4-[1-(4-Pyridyl)piperidin-4yl]carboxyamidophenyl]methyl]-4-methylphenylsulphonamide] |  | 
6.31 | 50.1 | COC(=O)CNc1ccc(OC(=O)CC2CCN(c3ccncc3)CC2)cc1 [Example 172, 4-Methyloxycarbonylmethylamiophenyl [1-(4-pyridyl)piperidin4-yl]acetate] |  | 
1.26 | 0.2 | COC(=O)COc1ccc(C(=O)CC2CCN(c3ccncc3)CC2)cc1 [Example 173, Methyl 4-[2-[1-(4-pyridyl)piperidin-4-yl]acetyl]phenoxyacetate] |  | 
0.158 to 0.398 | 0.00501 to 0.01 | O=C(O)COc1ccc(C(=O)CC2CCN(c3ccncc3)CC2)cc1 [Example 174, 4-[2-[1-(4Pyridyl)piperidin-4-yl]acetyl]phenoxyacetic acid hydrochloride] |  | 
1.26 | 0.631 | COC(=O)COc1ccc(C(=O)C(C)(C)N2CCN(c3ccncc3)CC2)cc1 [Example 175, Methyl 4-[2-[4-(4-pyridyl)piperazin-1yl]-2,2-dimethylacetyl]-phenoxyacetate] |  | 
0.2 | 0.01 | CC(C)(C(=O)c1ccc(OCC(=O)O)cc1)N1CCN(c2ccncc2)CC1 [Example 176, 4-[2-[4-(4-Pyridyl)piperazin-1-yl]-2,2-dimethylacetyl]phenoxyacetic acid] |  | 
3.16 | 1 | COC(=O)CCCc1ccc(CN2CCN(c3ccncc3)CC2)cc1 [Example 178, Methyl 4-[4-[4-(4-pyridyl)piperazin-1-yl]methylphenyl]butyrate] |  | 
15.8 | 3.98 | COC(=O)CCCCc1ccc(CN2CCN(c3ccncc3)CC2)cc1 [Example 179, Methyl 5-[4-[4-(4-pyridyl)piperazin-1-yl]methylphenyl]pentanoate] |  | 
7.94 | 20 | CS(=O)(=O)NCc1ccc(NC(=O)C2CCN(c3ccncc3)CC2)cc1 [Example 182] |  | 
31.6 | > 100 | CS(=O)(=O)NCCc1ccc(NC(=O)C2CCN(c3ccncc3)CC2)cc1 [Example 183, N-[2-[4-[1-(4-Pyridyl)piperidin-4-yl]carboxamidophenyl]ethyl]methanesulphonamide] |  | 

Kb [1, 3] [µM] | IC50 [2, 4] [µM] | Structure (SMILES) | Kb ([1]; Test (a): pA2 value indicating potency of platelet aggregation inhibition) [µM] | IC50 ([2]; Test (b): pIC50 (-log(IC50)), 50% inhibition of biotinylated fibrinogen binding to GPIIb/IIIa) [µM]
5.01 | > 100 | Cc1ccc(S(=O)(=O)NCCc2ccc(NC(=O)C3CCN(c4ccncc4)CC3)cc2)cc1 [Example 184, N-[2-[4-[1-(4-Pyridyl)piperidin-4-yl]carboxamidophenyl]ethyl]-4-methylphenylsulphonamide] |  | 
3.98 | 15.8 | CCCCS(=O)(=O)NCc1ccc(CCN2CCN(c3ccncc3)CC2)cc1 [Example 185, N-[4-[2-[4-(4-Pyridyl)piperazin-1-yl]ethyl]phenyl]methyl-1-butanesulphonamide] |  | 
5.01 | 1.26 | Cc1ccc(S(=O)(=O)NCc2ccc(CCN3CCN(c4ccncc4)CC3)cc2)cc1 [Example 186] |  | 
 |  | CN(CC(=O)O)C(=O)c1ccc(N2CCN(c3ccncc3)CC2)cc1 [Example 189, N-[4-[(4,4Pyridyl)piperazin-1-yl]benzoyl]-N-methylglycine, trifluoroacetate] | 1.26 | 0.316
63.1 | 20 | COC(=O)[C@H](Cc1ccccc1)NC(=O)c1ccc(N2CCN(c3ccncc3)CC2)cc1 [Example 190, N[4-[(4-Pyridyl)piperazin-1-yl]benzoyl]-L-phenylalanine, methyl ester] |  | 
> 100 | 3.98 | O=C(N[C@@H](Cc1ccccc1)C(=O)O)c1ccc(N2CCN(c3ccncc3)CC2)cc1 [Example 191] |  | 
> 100 | 0.251 | O=C(O)C[C@H](NC(=O)c1ccc(N2CCN(c3ccncc3)CC2)cc1)C(=O)NCCc1ccccc1 [Example 192, (S)-3-[N-[2-Phenenthyl]carboxamido]-3-[4-[4-(4-pyridyl)piperazin-1-yl]]-benzamidopropionic acid] |  | 
39.8 | 0.251 | O=C(O)C[C@@H](NC(=O)c1ccc(N2CCN(c3ccncc3)CC2)cc1)C(=O)NCCc1ccccc1 [Example 193] |  | 
3.98 | 0.126 | O=C(O)C[C@H](NC(=O)CNC(=O)CN1CCN(c2ccncc2)CC1)C(=O)NCCc1ccccc1 [Example 194, (S)-3-[N-(2-Phenethyl)carboxamido]-3-[N-[N-2-[4-(4-pyridyl)piperazin-1-yl]acetyl]glycyl]aminopropionic acid, trifluoroacetate] |  | 
2.51 | 0.158 | O=C(O)CCNC(=O)CCCN1CCN(c2ccncc2)CC1 [Example 195, 3-[4-[4-(4-Pyridyl)piperazin-1-yl]butyryl]aminopropionic acid, trifluoroacetate] |  | 
100 | 6.31 | O=C(O)CCCCN1CCN(c2ccncc2)CC1 [Example 196, 5-[(4-Pyridyl)piperazin-1-yl]pentanoic acid, dihydrochloride salt] |  | 
63.1 | 15.8 | COC(=O)CCNC(=O)CCCCN1CCN(c2ccncc2)CC1 [Example 197, Methyl 3-[5-[4-(4-pyridyl)piperazine-1-yl]petanoyl]aminopropionate] |  | 
0.794 | 0.02 | O=C(O)CCNC(=O)CCCCN1CCN(c2ccncc2)CC1 [Example 198, 3-[5-[4-(4-Pyridyl)piperazine-1-yl]pentanoyl]aminopropionic acid] |  | 
0.0126 | 0.00398 | O=C(O)CCCOc1ccc(N2CCN(c3ccncc3)CC2)cc1 [Example 200, 4-[4-[4-(4-Pyridyl)piperazine-1-yl]phenoxy]butyric acid, hydrochloride salt] |  | 
50.1 | > 100 | COCCNC(=O)CCCOc1ccc(N2CCN(c3ccncc3)CC2)cc1 [Example 201, N-2-Methoxyethyl-4-[4-[4-(4-pyridyl)piperazine-1-yl]phenoxy]butyramide, trifluoroacetate] |  | 
0.251 | 0.01 | C=CCc1cc(N2CCN(c3ccncc3)CC2)ccc1OCCCC(=O)O [Example 206] |  | 
0.316 | 1 | CCCc1cc(N2CCN(c3ccncc3)CC2)ccc1OCCCC(=O)OCC [Example 207, Ethyl 4-[2-n-propyl-4-[4-(4-pyridyl)piperazin-1-yl]phenoxy]butyrate] |  | 
0.316 | 2.51 | Cc1ccc(S(=O)(=O)NCC2CCN(C(=O)CN3CCN(c4ccncc4)CC3)CC2)cc1 [Example 222, N-[1-[2-[4-(4-Pyridyl)piperazin-1-yl]acetyl]piperidin-4-ylmethyl]-4-methylphenylsulphonamide] |  | 
1 | 1.58 | Cc1ccc(S(=O)(=O)NCCC2CCN(C(=O)CN3CCN(c4ccncc4)CC3)CC2)cc1 [Example 223, N-[2-[1-[2-[4-(4-pyridyl)piperazin-1-yl]acetyl]piperidin-4-ylethyl]-4-methylphenylsulphonamide, dihydrochloride] |  | 
31.6 | 0.501 | CN(C)c1ccncc1CCCOc1ccc(OCCCC(=O)O)cc1 [Example 224, 4-[4-[3-(4-dimethylaminopyrid-3-yl)propyloxy]phenoxy]butyric acid] |  | 
